“And” between values parts separate entries of the source, which are not always exact repeats. Equal entries are not always repeated. Structures can show the parent of a compound that is named as a salt.
Assays:
[1] = biological target: AT2 (h) human recombinant (Hela cells) (Homo sapiens, UniProt P50052); settings: competition curve, Hill equation curve fitting
Protocol: (§4) The specific ligand binding to the receptors is defined as the difference between the total binding and the nonspecific binding determined in the presence of an excess of unlabelled ligand. […] The IC50 values (concentration causing a half-maximal inhibition of control specific binding) and Hill coefficients (nH) were determined by non-linear regression analysis of the competition curves using Hill equation curve fitting. The inhibition constants (Ki) were calculated from the Cheng Prusoff equation (Ki=IC50/(1+(L/KD)), where L=concentration of radioligand in the assay, and KD=affinity of the radioligand for the receptor).

[2] = biological target: T1, AT1 (h) human recombinant (CHO cells) (Homo sapiens, UniProt P30556); test: AT1 (h) receptor binding assay; settings: [125I][Sar1, Ile8]-AT II 0.05 nM, 60 min./37° C.; highest tested concentration
T1 construct: expressed in transfected cells; host or cells: CHO cells
T1 sequence (P30556 1-359): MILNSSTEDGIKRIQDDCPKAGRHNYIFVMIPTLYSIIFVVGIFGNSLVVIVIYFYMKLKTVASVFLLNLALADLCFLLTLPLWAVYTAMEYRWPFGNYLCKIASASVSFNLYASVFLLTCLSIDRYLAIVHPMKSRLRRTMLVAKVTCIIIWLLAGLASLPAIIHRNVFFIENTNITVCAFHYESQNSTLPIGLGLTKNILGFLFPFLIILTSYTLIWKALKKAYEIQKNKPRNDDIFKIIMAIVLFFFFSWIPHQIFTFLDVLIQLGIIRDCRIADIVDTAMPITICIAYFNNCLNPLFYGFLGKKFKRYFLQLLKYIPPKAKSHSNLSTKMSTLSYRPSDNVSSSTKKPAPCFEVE
Protocol: as §4

diabetic rats [3] = test: Sciatic motor nerve conduction velocity in STZ-diabetic rats; assay type: in vivo, rat; settings: for Motor NCV, Mean: group mean of 10 diabetic rats; for Motor NCV, Mean / Motor NCV: last 2 weeks of 8 weeks diabetes; for Motor NCV: individual diabetic rats
Protocol: (§1) Methods: Diabetes was induced in mature (19 week old) male Sprague-Dawley by a single STZ injection (40-45 mg/kg i.p.). The diabetic state was monitored weekly using commercially available test strips for blood (tail vein) and urine glucose levels. Body weight was also monitored daily. The criteria for the diabetic state were: blood glucose>19.9 mM, glycosuria, and no evidence of body weight gain.
(§2) In final experiments, rats were anaesthetized with thiobutabarbital (50-100 mg kg-1 i.p.) The trachea was cannulated for artificial respiration. The level of anaesthesia was monitored by observing any reaction of blood pressure to manipulation, supplementary thiobutabarbital anaesthetic being given as necessary. As described in detail by Cameron et al., (Q. J. Expt Physiol, 74; 917-926, 1989 and Diabetes, 40:532-539, 1991), the sciatic nerve was exposed between the sciatic notch and knee. Bipolar stimulating electrodes were placed close to the nerve at the notch and knee. A concentric bipolar electrode was inserted into tibialis anterior muscle to monitor evoked electromyographic (EMG) activity. Potentials evoked from each stimulating site were averaged 8 times. Motor nerve conduction velocity (NCV) was calculated by dividing the distance between stimulating electrodes by the average latency difference between the onsets of EMG potentials evoked from the 2 sites. Nerve temperature was monitored using a thermocouple probe, and maintained in the range 36-38° C. by radiant heat. Body temperature was also maintained around 37° C. using a heated blanket.
as §1, with “also be” for “also”
as §2, with “necessary. The” for “necessary. As described in detail by Cameron et al., (Q. J. Expt Physiol, 74; 917-926, 1989 and Diabetes, 40:532-539, 1991), the”, “averaged […]” for “averaged 8”, “Motor NCV” for “Motor nerve conduction velocity (NCV)”, “blanket. Sensory NCV was measured for sensory saphenous nerve between groin and mid-calf in a similar fashion, except that direct nerve evoked potentials were recorded at the ankle using a unipolar platinum hook electrode. Reference values for comparison of the NCV data were obtained from nondiabetic control and 8 week diabetic control rats.” for “blanket.”
as §1, with “Diabetes” for “Methods: Diabetes”
In final experiments, rats were anaesthetized with thiobutabarbital (50-100 mg kg-1 i.p.) The trachea was cannulated for artificial respiration. […]

[4] = Body weight, blood glucose and general condition of treated diabetic rats; assay type: in vivo, rat; settings: for End weight, Mean: group mean of 10 diabetic rats; for End weight, Mean / End weight: last 2 weeks of 8 weeks diabetes; for End weight: individual diabetic rats
Protocol: as §1
as §1, with “also be” for “also”

diabetic rats [5] = test: Saphenous sensory nerve conduction velocity in STZ-diabetic rats; assay type: in vivo, rat; settings: for Sensory NCV, Mean: group mean of 10 diabetic rats; for Sensory NCV, Mean / Sensory NCV: last 2 weeks of 8 weeks diabetes; for Sensory NCV: individual diabetic rats
Protocol: as §1
Sensory NCV was measured for sensory saphenous nerve between groin and mid-calf in a similar fashion, except that direct nerve evoked potentials were recorded at the ankle using a unipolar platinum hook electrode.
as §1, with “also be” for “also”
as §2, with “necessary. The” for “necessary. As described in detail by Cameron et al., (Q. J. Expt Physiol, 74; 917-926, 1989 and Diabetes, 40:532-539, 1991), the”, “averaged […]” for “averaged 8”, “Motor NCV” for “Motor nerve conduction velocity (NCV)”, “blanket. Sensory NCV was measured for sensory saphenous nerve between groin and mid-calf in a similar fashion, except that direct nerve evoked potentials were recorded at the ankle using a unipolar platinum hook electrode. Reference values for comparison of the NCV data were obtained from nondiabetic control and 8 week diabetic control rats.” for “blanket.”
as §1, with “Diabetes” for “Methods: Diabetes”
as §2, with “The” for “As described in detail by Cameron et al., (Q. J. Expt Physiol, 74; 917-926, 1989 and Diabetes, 40:532-539, 1991), the”, “NCV” for “nerve conduction velocity (NCV)”, “blanket. Sensory NCV was measured for sensory saphenous nerve between groin and mid-calf in a similar fashion, except that direct nerve evoked potentials were recorded at the ankle using a unipolar platinum hook electrode. […]” for “blanket.”

diabetic rats [6] = test: Thermal hyperalgesia, Hargreaves plantar test, diabetic rats; assay type: in vivo, rat
Protocol: as §1, with “Diabetes” for “Methods: Diabetes”
(§3) Tactile allodynia thresholds for the foot were measured by an electronic von Frey hair apparatus. Latencies for foot withdrawal reflexes to noxious thermal stimulation were estimated by the Hargreaves plantar test (Hargreaves K, Dubner R, Brown F, Flores C, Joris J. A new and sensitive method for measuring thermal nociception in cutaneous hypeialgesia. Pain 1988; 32: 77-88). All tests were carried out using commercially available equipment (Ugo-Basile, Comerio, Italy). Measurements were made in a constant temperature room at the same time each day, and rats were given a 3-day period for familiarization with handling, the environment, equipment, and experimental procedure.
In a similar way to the assessment of tactile allodynia, thermal sensitivity was also measured on 2 separate occasions, before and after treatment. […] After 30 min acclimatization, a constant power infrared stimulus was focused onto the sole of the foot and the latency for reflex foot withdrawal recorded via a photoelectric monitor. […]

diabetic rats [7] = test: Tactile allodynia, electronic von Frey hair apparatus, diabetic rats; assay type: in vivo, rat
Protocol: as §1, with “Diabetes” for “Methods: Diabetes”
as §3, with “Measurements were made in a constant temperature room at the same time each day, and rats were given a 3-day period for familiarization with handling, the environment, equipment, and experimental procedure.” left out
Tactile allodynia was estimated on two separate occasions; once on a day before treatment was initiated, and then on the day immediately following the last day of the treatment period. […] Thus, stimulus intensity tracked the threshold, and a run of 6 near-threshold responses was used to estimate the 50% threshold value using lookup tables (Chaplan S R, Bach F W, Pogrel J W, Chung J M, Yaksh T L. Quantitative assessment of tactile allodynia in the rat paw. J Neurosci Meth 1994; 53: 55-63). […]

[8] = 1.048 mg/kg daily by gavage for 2 weeks
[9] = 0.01048 mg/kg daily by gavage, 0.01048 mg/kg
[10] = 0.0349 mg/kg daily by gavage, 0.0349 mg/kg
[11] = 0.1048 mg/kg daily by gavage, 0.1048 mg/kg
[12] = 1.048 mg/kg daily by gavage, 1.048 mg/kg
[13] = 1.048 mg/kg daily by oral gavage
[14] = 1.048 mg/kg daily by oral gavage, 28 days
[15] = 1.048 mg/kg by oral gavage, 1 day, before vs after drug

Sequence of AT2 (h) human recombinant (Hela cells) (P50052 whole entry): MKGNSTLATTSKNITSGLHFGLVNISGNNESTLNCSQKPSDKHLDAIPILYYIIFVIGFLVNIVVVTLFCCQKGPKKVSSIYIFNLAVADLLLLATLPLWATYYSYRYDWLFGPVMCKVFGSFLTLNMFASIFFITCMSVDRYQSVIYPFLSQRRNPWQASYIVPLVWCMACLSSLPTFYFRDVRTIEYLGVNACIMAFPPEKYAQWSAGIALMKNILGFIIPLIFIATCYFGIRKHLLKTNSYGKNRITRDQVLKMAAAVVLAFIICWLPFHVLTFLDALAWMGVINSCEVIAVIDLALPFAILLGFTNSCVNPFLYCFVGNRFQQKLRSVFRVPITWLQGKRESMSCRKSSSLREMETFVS

For `COc1ccc2c(c1OCc1ccccc1)C[C@@H](C(=O)O)N(C(=O)C(c1ccccc1)c1ccccc1)C2` [Compound 1, S-2-(diphenylacetyl)-5-benzyloxy-6-methoxy-1,2,3,4-tetrahydroisoquinoline-3-carboxylic acid], the “nH (Hill coefficient)” value [1] was 1.3, the “Flags (IC50 determination)” value [2] was “N.C. (Not calculable. IC50 value is not calculable because of less than 25% inhibition at the highest tested concentration.)” and the “sciatic motor NCV compared with nondiabetic control group (one way ANOVA, Bonferroni test)” value (diabetic rats [3]; [8]) was “not significantly different”. For the same molecule, the “reversal of the diabetic deficit, sciatic motor NCV” value (diabetic rats [3]; 1.048 mg/kg daily by gavage for 2 weeks, vs nondiabetic and diabetic reference groups) was 92.6±5.4%.
For `COc1ccc2c(c1OCc1ccccc1)C[C@@H](C(=O)O)N(C(=O)C(c1ccccc1)c1ccccc1)C2` [Compound 1 sodium salt, S-2-(diphenylacetyl)-5-benzyloxy-6-methoxy-1,2,3,4-tetrahydroisoquinoline-3-carboxylic acid], the “condition of animals at the end of the experimental period” value [4, 8] was “in good condition and behaviourally alert”, the “condition of animals at the end of the experimental period” value ([4]; 0.1048, 0.0349 or 0.01048 mg/kg daily by gavage for 2 weeks) was “in good condition and behaviourally alert” and the “End weight, Mean” value ([4]; 0.01048 mg/kg daily by gavage) was 372 g. The “End weight, Mean” value ([4]; 0.0349 mg/kg daily by gavage) was 357 g, the “End weight, Mean” value ([4]; 0.1048 mg/kg daily by gavage) was 369 g and the “End weight, Mean” value ([4]; 1.048 mg/kg daily by gavage) was 390 g. For the same molecule, the End weight [4, 9] was 374 g and 436 g and 346 g and 438 g and 349 g and 329 g and 364 g and 385 g and 386 g and 312 g, the End weight [4, 10] was 369 g and 427 g and 400 g and 396 g and 332 g and 307 g and 277 g and 327 g and 368 g (2×) and the End weight [4, 11] was 398 g and 363 g and 298 g and 315 g and 357 g and 346 g and 392 g and 405 g and 374 g and 440 g. The End weight [4, 12] was 429 g and 380 g and 389 g and 393 g and 390 g and 353 g and 366 g and 418 g and 360 g and 425 g, the “diabetic deficit corrected, saphenous sensory NCV” value (diabetic rats [5]; 1.048 mg/kg daily by gavage for 2 weeks, p<0.001, vs reference groups) was 99.1±5.0% and the “treatment duration after which sensory NCV was statistically within the nondiabetic range” value (diabetic rats [5]; [13]) was 3 days. The “sensory NCV, 28-day treatment group versus 14-day data” value (diabetic rats [5]; [14]) was “entirely comparable with the previously obtained 14-day data”, the ED50 (diabetic rats [5]; Rattus norvegicus, 336 h, oral, daily for 2 weeks, best fit sigmoid curve, read-out: ED50, correction of saphenous sensory NCV deficit) was 0.02 mg/kg and the “Sensory NCV, Mean” value (diabetic rats [5]; 0.01048 mg/kg daily by gavage) was 53.93 m/s. The “Sensory NCV, Mean” value (diabetic rats [5]; 0.0349 mg/kg daily by gavage) was 57.25 m/s, the “Sensory NCV, Mean” value (diabetic rats [5]; 0.1048 mg/kg daily by gavage) was 60.73 m/s and the “Sensory NCV, Mean” value (diabetic rats [5]; 1.048 mg/kg daily by gavage) was 61.10 m/s. The “Sensory NCV” value (diabetic rats [5]; [9]) was 55.47 m/s and 56.07 m/s and 51.59 m/s and 54.39 m/s and 55.30 m/s and 51.82 m/s and 51.85 m/s and 55.81 m/s and 53.85 m/s and 53.19 m/s, the “Sensory NCV” value (diabetic rats [5]; [10]) was 57.43 m/s and 57.94 m/s and 55.60 m/s and 59.95 m/s and 56.00 m/s and 57.50 m/s and 55.93 m/s and 57.73 m/s and 57.72 m/s and 56.72 m/s and the “Sensory NCV” value (diabetic rats [5]; [11]) was 61.11 m/s and 62.96 m/s and 61.22 m/s and 56.67 m/s and 63.16 m/s and 62.50 m/s (2×) and 63.04 m/s and 58.33 m/s and 55.83 m/s. The “Sensory NCV” value (diabetic rats [5]; [12]) was 62.50 m/s (4×) and 60.63 m/s and 60.41 m/s and 60.71 m/s and 57.57 m/s and 60.98 m/s and 60.74 m/s, the “treatment duration after which motor NCV was statistically within the nondiabetic range” value (diabetic rats [3]; [13]) was 7 days and the “motor NCV, 28-day treatment group versus 14-day data” value (diabetic rats [3]; [14]) was “entirely comparable with the previously obtained 14-day data”. The ED50 (diabetic rats [3]; Rattus norvegicus, 336 h, oral, daily for 2 weeks, best fit sigmoid curve, read-out: ED50, correction of sciatic motor NCV deficit) was 0.044 mg/kg, the “Motor NCV, Mean” value (diabetic rats [3]; 0.01048 mg/kg daily by gavage) was 53.25 m/s and the “Motor NCV, Mean” value (diabetic rats [3]; 0.0349 mg/kg daily by gavage) was 56.68 m/s. For the same molecule, the “Motor NCV, Mean” value (diabetic rats [3]; 0.1048 mg/kg daily by gavage) was 60.51 m/s, the “Motor NCV, Mean” value (diabetic rats [3]; 1.048 mg/kg daily by gavage) was 63.72 m/s and the “Motor NCV” value (diabetic rats [3]; [9]) was 54.92 m/s and 55.17 m/s and 54.10 m/s and 50.78 m/s and 54.03 m/s and 51.60 m/s and 51.96 m/s and 56.90 m/s and 50.70 m/s and 52.38 m/s. The “Motor NCV” value (diabetic rats [3]; [10]) was 56.15 m/s and 57.38 m/s and 56.90 m/s and 57.89 m/s and 59.32 m/s and 56.67 m/s and 53.68 m/s and 58.18 m/s and 54.55 m/s and 56.06 m/s, the “Motor NCV” value (diabetic rats [3]; [11]) was 59.13 m/s and 61.48 m/s and 60.00 m/s (2×) and 58.62 m/s and 63.63 m/s and 64.15 m/s and 59.02 m/s and 60.78 m/s and 58.33 m/s and the “Motor NCV” value (diabetic rats [3]; [12]) was 62.87 m/s and 62.30 m/s and 62.84 m/s and 62.50 m/s and 63.90 m/s and 62.69 m/s and 64.95 m/s and 61.75 m/s and 69.57 m/s and 63.81 m/s. For the same molecule, the “effect on thermal hyperalgesia of only 1 day of treatment (paired Student's t)” value (diabetic rats [6]; [15]) was “significant, albeit partial”, the “treatment duration to full correction of thermal hyperalgesia” value (diabetic rats [6]; [13]) was 3 days and the “effect on tactile allodynia of only 1 day of treatment (paired Student's t)” value (diabetic rats [7]; [15]) was “significant, albeit partial”. For the same molecule, the “treatment duration to full correction of tactile allodynia” value (diabetic rats [7]; [13]) was 3 days.

— patent US9095587B2, “Methods and compositions for improved nerve conduction velocity” (Spinifex Pharmaceuticals Pty Ltd, priority 2010, dated 2015)
